The record followed here is patent US20020082254A1, “Compounds for treating disorders where a decreased level of plasma FFA is desired” (priority 2000, published 2002).

The experiment addresses T1, Hormone-sensitive lipase (HSL) (Homo sapiens, UniProt Q05469).
T1 sequence (Q05469 1-1076): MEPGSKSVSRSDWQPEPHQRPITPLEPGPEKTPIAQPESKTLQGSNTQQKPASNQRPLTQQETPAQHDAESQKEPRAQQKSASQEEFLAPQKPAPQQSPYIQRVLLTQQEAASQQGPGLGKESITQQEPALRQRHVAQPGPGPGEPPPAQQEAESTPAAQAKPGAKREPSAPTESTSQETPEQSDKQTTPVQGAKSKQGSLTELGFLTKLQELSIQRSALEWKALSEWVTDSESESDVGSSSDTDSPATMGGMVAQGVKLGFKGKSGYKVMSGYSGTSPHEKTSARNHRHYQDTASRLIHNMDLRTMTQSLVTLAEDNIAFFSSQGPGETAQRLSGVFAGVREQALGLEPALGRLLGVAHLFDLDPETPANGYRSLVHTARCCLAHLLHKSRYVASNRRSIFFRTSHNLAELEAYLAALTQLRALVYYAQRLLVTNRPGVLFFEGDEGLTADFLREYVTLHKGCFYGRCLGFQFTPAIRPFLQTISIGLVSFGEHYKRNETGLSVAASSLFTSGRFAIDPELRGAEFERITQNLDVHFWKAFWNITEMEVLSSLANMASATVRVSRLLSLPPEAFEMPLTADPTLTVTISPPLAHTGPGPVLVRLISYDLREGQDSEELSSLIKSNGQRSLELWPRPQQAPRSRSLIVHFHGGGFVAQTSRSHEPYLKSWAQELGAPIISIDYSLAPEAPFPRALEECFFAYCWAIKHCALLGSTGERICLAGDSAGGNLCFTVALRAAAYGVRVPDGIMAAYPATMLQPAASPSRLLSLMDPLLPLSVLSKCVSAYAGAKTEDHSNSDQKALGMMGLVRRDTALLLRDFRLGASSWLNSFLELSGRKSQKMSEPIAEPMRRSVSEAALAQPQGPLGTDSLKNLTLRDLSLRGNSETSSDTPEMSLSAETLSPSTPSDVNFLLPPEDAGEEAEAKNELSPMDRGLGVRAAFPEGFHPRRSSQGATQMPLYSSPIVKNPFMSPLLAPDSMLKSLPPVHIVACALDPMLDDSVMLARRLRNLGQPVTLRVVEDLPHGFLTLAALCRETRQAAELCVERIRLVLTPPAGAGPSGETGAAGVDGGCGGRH
Put plainly: Hormone-sensitive lipase (HSL) inhibition assay, 3H-labeled triolein or MOME substrate. As to conditions: read-out: HSL inhibition (IC50). It counts as biochemical. A digest of the protocol:
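HSL enzyme (0.12 mg/ml stock) preincubated with inhibitor in PED-BSA, then given sonicated PC:PI-emulsified ³H-triolein or ³H-MOME in 0.1 M potassium phosphate pH 7 with BSA. 30 min at 37 °C; released radiolabelled fatty acid extracted in methanol/chloroform/heptane at pH 10.5 and scintillation counted.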

In general, IC50 refers to the midpoint of a concentration-inhibition curve.

`O=C(NN1CCc2ccccc2C1)Oc1ccc(Cl)cc1` [Example 6, (3,4-Dihydro-1H-isoquinolin-2-yl)-carbamic acid 4-chloro-phenyl Ester]: the concentration for half-maximal inhibition (IC50) was found to be 19 nM.

With `CC(C)(C)OC(=O)Nc1ccc(OC(=O)NN2CCc3ccccc3C2)cc1` [Example 17, (3,4-Dihydro-1H-isoquinolin-2-yl)-carbamic Acid 4-tert-butoxycarbonylamino-phenyl Ester], the IC50 worked out at 3 nM.

Regarding `CC1Cc2ccccc2CN1NC(=O)Oc1ccc(Cl)cc1` (stereo not drawn) [Example 23, (3-Methyl-3,4-dihydro-1H-isoquinolin-2-yl)-carbamic Acid 4-chloro-phenyl Ester], the IC50 amounted to 40 nM.
